One may read the IC50 as the concentration that inhibits the measured activity by half. A lower IC50 goes with higher potency. Usually GI50 stands for the concentration that inhibits growth by half. A higher GI50 goes with less potent growth inhibition. One may read the DC50 as the concentration at which degradation of the target reaches its halfway point. One may read the remaining activity as the signal under treatment as a percentage of the control signal.

Test [1] deals with CDK12 (Homo sapiens, UniProt Q9NYV4). Nature of the test: Inhibition of cyclin-dependent kinase 12 (% enzyme activity at 1 uM and IC50). It counts as biochemical. The following applies: for remaining activity at 1 µM: 1 uM compound.
Sequence of CDK12 (Q9NYV4 whole entry): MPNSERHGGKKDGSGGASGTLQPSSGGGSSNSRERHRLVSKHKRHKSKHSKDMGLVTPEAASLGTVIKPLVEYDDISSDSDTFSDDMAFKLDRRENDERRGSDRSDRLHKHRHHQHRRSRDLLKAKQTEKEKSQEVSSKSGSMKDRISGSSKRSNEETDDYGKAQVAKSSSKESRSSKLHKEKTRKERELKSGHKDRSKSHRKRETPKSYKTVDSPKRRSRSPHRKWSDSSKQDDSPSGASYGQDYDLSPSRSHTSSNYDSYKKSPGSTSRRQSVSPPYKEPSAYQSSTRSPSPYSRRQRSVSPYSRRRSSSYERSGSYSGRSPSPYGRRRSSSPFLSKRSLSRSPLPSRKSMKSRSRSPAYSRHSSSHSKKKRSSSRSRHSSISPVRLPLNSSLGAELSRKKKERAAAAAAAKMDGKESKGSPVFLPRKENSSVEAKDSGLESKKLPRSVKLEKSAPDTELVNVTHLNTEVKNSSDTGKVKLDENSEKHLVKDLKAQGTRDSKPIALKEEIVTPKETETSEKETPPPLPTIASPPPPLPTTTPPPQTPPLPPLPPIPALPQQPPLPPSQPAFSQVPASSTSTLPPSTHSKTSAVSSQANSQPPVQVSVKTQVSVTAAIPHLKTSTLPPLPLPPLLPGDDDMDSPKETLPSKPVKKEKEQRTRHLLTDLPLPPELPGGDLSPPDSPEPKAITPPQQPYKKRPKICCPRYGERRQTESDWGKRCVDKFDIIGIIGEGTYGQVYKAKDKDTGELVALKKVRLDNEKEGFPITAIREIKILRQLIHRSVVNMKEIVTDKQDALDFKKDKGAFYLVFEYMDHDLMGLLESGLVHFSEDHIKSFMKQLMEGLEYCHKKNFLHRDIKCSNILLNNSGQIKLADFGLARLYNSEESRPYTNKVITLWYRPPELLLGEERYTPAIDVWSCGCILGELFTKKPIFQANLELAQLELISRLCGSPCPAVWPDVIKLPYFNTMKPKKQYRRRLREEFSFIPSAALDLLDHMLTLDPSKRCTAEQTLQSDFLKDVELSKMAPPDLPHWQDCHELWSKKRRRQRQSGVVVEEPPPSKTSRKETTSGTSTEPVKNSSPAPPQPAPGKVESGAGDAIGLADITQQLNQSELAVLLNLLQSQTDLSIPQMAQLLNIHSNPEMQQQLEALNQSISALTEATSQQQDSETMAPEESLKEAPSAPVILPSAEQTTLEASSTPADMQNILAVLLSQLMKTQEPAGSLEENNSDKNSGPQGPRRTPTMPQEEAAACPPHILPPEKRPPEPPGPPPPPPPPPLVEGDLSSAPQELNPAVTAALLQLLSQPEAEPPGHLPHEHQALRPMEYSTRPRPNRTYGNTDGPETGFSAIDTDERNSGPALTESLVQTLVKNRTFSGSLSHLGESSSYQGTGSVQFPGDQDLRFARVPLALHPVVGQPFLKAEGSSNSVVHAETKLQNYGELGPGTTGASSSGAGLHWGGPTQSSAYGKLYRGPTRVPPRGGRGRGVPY
Sequence of CDK12 (O75909 whole entry partner): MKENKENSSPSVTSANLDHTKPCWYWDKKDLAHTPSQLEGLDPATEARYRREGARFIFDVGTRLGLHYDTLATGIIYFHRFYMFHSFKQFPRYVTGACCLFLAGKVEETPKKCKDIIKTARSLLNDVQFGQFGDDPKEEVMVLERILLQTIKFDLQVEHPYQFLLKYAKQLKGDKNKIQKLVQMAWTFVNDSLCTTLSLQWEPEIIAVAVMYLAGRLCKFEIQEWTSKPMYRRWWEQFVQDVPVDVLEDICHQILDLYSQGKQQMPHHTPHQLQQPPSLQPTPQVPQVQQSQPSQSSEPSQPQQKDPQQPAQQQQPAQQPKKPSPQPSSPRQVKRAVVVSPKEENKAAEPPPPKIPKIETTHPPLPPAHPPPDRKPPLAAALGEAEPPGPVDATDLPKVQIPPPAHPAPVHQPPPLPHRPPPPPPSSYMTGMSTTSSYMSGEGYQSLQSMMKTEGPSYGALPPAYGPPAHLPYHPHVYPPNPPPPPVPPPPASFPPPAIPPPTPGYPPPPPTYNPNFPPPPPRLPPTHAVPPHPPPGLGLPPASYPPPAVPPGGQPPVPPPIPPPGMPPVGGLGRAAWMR
For test [2], the system named is MDA-MB-231 cell line. Nature of the test: Antiproliferative activity, MDA-MB-231 cell line (GI50). The conditions noted are these: Homo sapiens. It counts as cell-based.
In test [3] the test system is CCNK. Nature of the test: CCNK degradation (DC50, Dmax). It counts as cell-based. The conditions noted are these: for Dmax (%): CCNK degradation.

`NC1CCN(c2cc(NCc3nc4cccc(Cl)c4[nH]3)c3ncc(-c4ccsc4)n3n2)CC1` [Cmpd 70, 6-(4-aminopiperidin-1-yl)-N-((7-chloro-1H-benzo[d]imidazol-2-yl)methyl)-3-(thiophen-3-yl) imidazo[1,2-b]pyridazin-8-amine] returned an IC50 in test [1] of 78 nM. The compound also returned a GI50 in test [2] of 73 nM. In test [3], the DC50 is 160 nM and the “Dmax (%)” value came out at 95%.
In test [1], `Fc1cccc2[nH]c(CNc3cc(N4CCOCC4)nn4c(-c5cnn(C6CC6)c5)cnc34)nc12` [Cmpd 36, 3-(1-cyclopropyl-1H-pyrazol-4-yl)-N-((4-fluoro-1H-benzo[d]imidazol-2-yl)methyl)-6-morpholinoimidazo[1,2-b]pyridazin-8-amine] registered an IC50 of 1220 nM and a remaining activity at 1 µM of 45%. The compound also had a GI50 in test [2] of 4670 nM. Besides, in test [3], the DC50 was 830 nM and the “Dmax (%)” value is reported as 65%.
In test [1], `Fc1cccc2[nH]c(CNc3cc(N4CCOCC4)nn4c(-c5cnn(C(F)F)c5)cnc34)nc12` [Cmpd 52, 3-(1-(difluoromethyl)-1H-pyrazol-4-yl)-N-((4-fluoro-1H-benzo[d]imidazol-2-yl)methyl)-6-morpholinoimidazo[1,2-b]pyridazin-8-amine] gave an IC50 of 359 nM and a remaining activity at 1 µM of 23%. The same compound came in with a GI50 in test [2] of 390 nM. In test [3], the DC50 stood at 30 nM and the “Dmax (%)” value amounted to 80%.
In test [1], `CC(C)n1cc(-c2cnc3c(NCc4nc5c(F)cccc5[nH]4)cc(N4CCN(C)CC4)nn23)cn1` [Cmpd 26, N-((4-fluoro-1H-benzo[d]imidazol-2-yl)methyl)-3-(1-isopropyl-1H-pyrazol-4-yl)-6-(4-methylpiperazin-1-yl) imidazo[1,2-b]pyridazin-8-amine] had an IC50 of 1110 nM and a remaining activity at 1 µM of 53%. Also, in test [2], halving of growth (GI50) required 6070 nM. The same compound yielded a DC50 in test [3] of 10000 nM.
With `CN1CCN(c2cc(NCc3nc4cc(Cl)c(Cl)cc4[nH]3)c3ncc(-c4cnn(C5CC5)c4)n3n2)CC1` [Cmpd 29, 3-(1-cyclopropyl-1H-pyrazol-4-yl)-N-((5,6-dichloro-1H-benzo[d]imidazol-2-yl)methyl)-6-(4-methylpiperazin-1-yl) imidazo[1,2-b]pyridazin-8-amine], in test [1], the remaining activity at 1 µM turned out to be 81%. The same compound showed a GI50 in test [2] of 1120 nM. The DC50 in test [3] turned out to be 10000 nM.
On to `CN1CCC(Nc2cc(NCc3nc4cccc(Cl)c4[nH]3)c3ncc(-c4ccsc4)n3n2)CC1` [Cmpd 71, N8-((7-chloro-1H-benzo[d]imidazol-2-yl)methyl)-N6-(1-methylpiperidin-4-yl)-3-(thiophen-3-yl) imidazo[1,2-b]pyridazine-6,8-diamine], for which the IC50 in test [1] was 130 nM. The concentration for 50% growth inhibition (GI50) in test [2] came out at 71 nM. Moreover, in test [3], the DC50 was found to be 160 nM and the “Dmax (%)” value is 100%.
In the same order, the values of `CN1CCN(c2cc(NCc3nc4cc(Cl)c(Cl)cc4[nH]3)c3ncc(-c4cnn(C)c4)n3n2)CC1` [Cmpd 8, N-((5,6-dichloro-1H-benzo[d]imidazol-2-yl)methyl)-3-(1-methyl-1H-pyrazol-4-yl)-6-(4-methylpiperazin-1-yl) imidazo[1,2-b]pyridazin-8-amine] are 10000 nM, 424 nM, 1300 nM and 100%.
In test [1], `Cc1cc(-c2cnc3c(NCc4nc5c(F)cccc5[nH]4)cc(N4CCOCC4)nn23)cs1` [Cmpd 94, N-((4-fluoro-1H-benzo[d]imidazol-2-yl)methyl)-3-(5-methylthiophen-3-yl)-6-morpholinoimidazo[1,2-b]pyridazin-8-amine] showed a remaining activity at 1 µM of 70%. In test [2], this compound registered a GI50 of 1500 nM. In test [3], the half-maximal degradation concentration (DC50) was 1000 nM and the “Dmax (%)” value is on record as 80%.
`Cc1ccnc2[nH]c(CNc3cc(N4CCOCC4)nn4c(-c5cnn(C)c5)cnc34)nc12` [Cmpd 12, 3-(1-methyl-1H-pyrazol-4-yl)-N-((7-methyl-3H-imidazo[4,5-b]pyridin-2-yl)methyl)-6-morpholinoimidazo[1,2-b]pyridazin-8-amine] showed an IC50 in test [1] of 1000 nM. In addition, it took 5690 nM to inhibit growth in test [2] by half (GI50). In test [3], it took 2100 nM to reach half-maximal degradation (DC50) and the “Dmax (%)” value came to 65%.
In the same order, the values of `Clc1cccc2nc(CNc3cc(N4CCOCC4)nn4c(-c5ccsc5)cnc34)[nH]c12` [Cmpd 67, N-((7-chloro-1H-benzo[d]imidazol-2-yl)methyl)-6-morpholino-3-(thiophen-3-yl) imidazo[1,2-b]pyridazin-8-amine] are 300 nM, 207 nM, 80 nM and 85%.
As to `CN1CCN(c2cc(NCc3nc4cccc(Cl)c4[nH]3)c3ncc(-c4cnn(C5CC5)c4)n3n2)CC1` [Cmpd 32, N-((7-chloro-1H-benzo[d]imidazol-2-yl)methyl)-3-(1-cyclopropyl-1H-pyrazol-4-yl)-6-(4-methylpiperazin-1-yl) imidazo[1,2-b]pyridazin-8-amine], in test [1], inhibition was half-maximal at 2080 nM (IC50) and the remaining activity at 1 µM worked out at 45%. Moreover, in test [2], the GI50 was 4430 nM. Besides, in test [3], the DC50 came out at 1400 nM and the “Dmax (%)” value was 50%.
Compound `CN1CCN(c2cc(NCc3nc4cccc(Cl)c4[nH]3)c3ncc(-c4ccsc4)n3n2)CC1` [Cmpd 66, N-((7-chloro-1H-benzo[d]imidazol-2-yl)methyl)-6-(4-methylpiperazin-1-yl)-3-(thiophen-3-yl) imidazo[1,2-b]pyridazin-8-amine] showed an IC50 in test [1] of 90 nM. In test [2], this compound returned a GI50 of 180 nM. For the same compound, in test [3], the DC50 came to 80 nM and the “Dmax (%)” value is 85%.
In test [1], `Cc1ccnc2[nH]c(CNc3cc(N4CCOCC4)nn4c(-c5ccsc5)cnc34)nc12` [Cmpd 76, N-((7-methyl-3H-imidazo[4,5-b]pyridin-2-yl)methyl)-6-morpholino-3-(thiophen-3-yl) imidazo[1,2-b]pyridazin-8-amine] returned an IC50 of 7380 nM. Besides, the GI50 in test [2] is 376 nM. In addition, in test [3], the DC50 came out at 250 nM and the “Dmax (%)” value was determined as 75%.
In test [1], `Fc1ccc2[nH]c(CNc3cc(N4CCOCC4)nn4c(-c5cnn(C(F)F)c5)cnc34)nc2c1F` [Cmpd 55, N-((4,5-difluoro-1H-benzo[d]imidazol-2-yl)methyl)-3-(1-(difluoromethyl)-1H-pyrazol-4-yl)-6-morpholinoimidazo[1,2-b]pyridazin-8-amine] showed an IC50 of 283 nM. The compound also yielded a 50% growth inhibitory concentration (GI50) in test [2] of 472 nM. Besides, in test [3], the DC50 worked out at 70 nM and the “Dmax (%)” value amounted to 80%.
In the same order, the values of `CN1CCN(c2cc(NCc3nc4c(F)c(F)ccc4[nH]3)c3ncc(-c4cnn(C(F)F)c4)n3n2)CC1` [Cmpd 54, N-((4,5-difluoro-1H-benzo[d]imidazol-2-yl)methyl)-3-(1-(difluoromethyl)-1H-pyrazol-4-yl)-6-(4-methylpiperazin-1-yl) imidazo[1,2-b]pyridazin-8-amine] are 175 nM, 440 nM, 110 nM and 85%.
In the case of `Clc1cccc2nc(CNc3cc(N4CCOCC4)nn4c(-c5cnn(C6CC6)c5)cnc34)[nH]c12` [Cmpd 33, N-((7-chloro-1H-benzo[d]imidazol-2-yl)methyl)-3-(1-cyclopropyl-1H-pyrazol-4-yl)-6-morpholinoimidazo[1,2-b]pyridazin-8-amine], in test [1], the remaining activity at 1 µM was determined as 60%. The same compound registered a GI50 in test [2] of 6160 nM. In test [3], the DC50 stood at 830 nM and the “Dmax (%)” value came to 65%.
In test [1], `CC(C)n1cc(-c2cnc3c(NCc4nc5cc(Cl)c(Cl)cc5[nH]4)cc(N4CCOCC4)nn23)cn1` [Cmpd 15, N-((5,6-dichloro-1H-benzo[d]imidazol-2-yl)methyl)-3-(1-isopropyl-1H-pyrazol-4-yl)-6-morpholinoimidazo[1,2-b]pyridazin-8-amine] yielded an IC50 of 3000 nM and a remaining activity at 1 µM of 68%. Besides, the GI50 in test [2] was 4110 nM. In test [3], the DC50 came to 2100 nM and the “Dmax (%)” value is 65%.
In test [1], `CC(C)n1cc(-c2cnc3c(NCc4nc5cc(Cl)c(Cl)cc5[nH]4)cc(N4CCN(C)CC4)nn23)cn1` [Cmpd 14, N-((5,6-dichloro-1H-benzo[d]imidazol-2-yl)methyl)-3-(1-isopropyl-1H-pyrazol-4-yl)-6-(4-methylpiperazin-1-yl) imidazo[1,2-b]pyridazin-8-amine] gave an IC50 of 5000 nM and a remaining activity at 1 µM of 84%. Further, in test [2], the 50% growth inhibitory concentration (GI50) was 1770 nM. The same compound returned a DC50 in test [3] of 10000 nM.
Regarding `CC1(C)CN(c2cc(NCc3nc4cc(Cl)c(Cl)cc4[nH]3)c3ncc(-c4cnn(C(F)F)c4)n3n2)CCO1` [Cmpd 48, N-((5,6-dichloro-1H-benzo[d]imidazol-2-yl)methyl)-3-(1-(difluoromethyl)-1H-pyrazol-4-yl)-6-(2,2-dimethylmorpholino) imidazo[1,2-b]pyridazin-8-amine], the IC50 in test [1] worked out at 2440 nM. In addition, the GI50 in test [2] came out at 130 nM. For the same compound, in test [3], the DC50 was 200 nM and the “Dmax (%)” value amounted to 100%.
The like results for `Clc1cc2nc(CNc3cc(N4CCOCC4)nn4c(-c5ccsc5)cnc34)[nH]c2cc1Cl` [Cmpd 64, N-((5,6-dichloro-1H-benzo[d]imidazol-2-yl)methyl)-6-morpholino-3-(thiophen-3-yl) imidazo[1,2-b]pyridazin-8-amine] were, in that order, 4250 nM, 168 nM, 340 nM and 100%.
`Cc1cc(-c2cnc3c(NCc4nc5cc(Cl)c(Cl)cc5[nH]4)cc(N4CCOCC4)nn23)cs1` [Cmpd 88, N-((5,6-dichloro-1H-benzo[d]imidazol-2-yl)methyl)-3-(5-methylthiophen-3-yl)-6-morpholinoimidazo[1,2-b]pyridazin-8-amine]: in test [1], the remaining activity at 1 µM came out at 82%. Also, the GI50 in test [2] was 460 nM. Moreover, in test [3], the DC50 was 1800 nM and the “Dmax (%)” value was 100%.

(Values after US20260055114A1, “IMIDAZO[1,2-B]PYRIDAZINE INHIBITORS OF CYCLIN-DEPENDENT KINASES” (H. LEE MOFFITT CANCER CENTER AND RESEARCH INSTITUTE, INC., priority 2022, published 2026).)
